Values joined by “and” are separate entries in the source; they are usually repeats but may differ in a detail not shown here. Equal entries are not always repeated.
What was measured:
[1] = tested on: newly formed cells (BrdU) in the subventricular zone and the dentate gyrus; experiment: BrdU-positive newly formed cells in non-ischemic rats after single dose of DETANONO; format: in vivo, rat
Procedure: Treatment of non-ischemic brain with DETANONO: Rats not subjected to any surgical procedures were treated with DETANONO. The drug was administered as a single dose (iv 0.12 mg). BrdU was injected daily for 14 days after treatment. One population (Group 3) of rats was sacrificed on the last day of BrdU injection, Another population (Group 4) was sacrificed at four weeks after the last BrdU injection. Animals which were not administered DETA-NONO were given BrdU with the identical protocol as that for the DETA-NONO treated rats (Group 5).

ischemic rats (stroke) = experiment: Battery of neurological functional tests (NSS, Rotarod, footfault, adhesive removal, body weight) after stroke; format: in vivo, rat
Procedure: Administration of nitric oxide donor compound (DETA/NO) to normal and ischemic rats promotes neurogenesis in non-ischemic and ischemic brains. Since then, additional experiments have been performed to test the hypothesis that neurogenesis induced by DETA/NO promotes functional improvement after stroke; the data is provided herewith. Animals were administered (iv/ip) DETA/NO at one day (Group 1) or seven days (Group 2) after induction of stroke and followed by daily injection (ip) of DETA/NO over a period of seven days. Another NO donor compound (SNAP) was administered (iv) to ischemic rats at one day and two days after stroke (Group 3). Young (3 month old) rats were used in Groups 1 and 2. Middle aged rats (10 to 12 months old) were used in Group 3. A battery of neurological functional tests were measured from two days to forty-two days after stroke. These tests included 1) Neurological severity score (NSS) which measures motor, sensory and reflex functions and is similar to the contralateral neglect testing described in humans. The higher the score, the more severe the injury; 2) Rotarod test measures fore and hindlimb motor coordination and balance. Data are presented as percentage of baseline values; 3) Footfault test measures fore and hindlimb motor coordination. The higher the number, the more severe the injury; 4) Adhesive removal test measures sensorimotor impairments. Data are presented as time (seconds). The longer the time period, the more severe the injury; 5) Animal body weight.

## NCCN(CCN)/[N+]([O-])=N/O [DETANONO, DETANONOate]
[1]; Group 3: single dose iv 0.12 mg, sacrificed on last day of BrdU injection, Group 5 controls 1432.6±104.6, 1655.2±102.9, in cells/mm2
  BrdU cells, subventricular zones (two values, sides not given): 2952±102.6 and 2725.3±115.5
[1]; Group 3, Group 5 control 39.9±7.26
  BrdU cells, dentate gyrus (granule cell layer): 73.7±8.11
[1]; Group 4: single dose iv 0.12 mg, sacrificed four weeks after last BrdU injection, controls 214.6±67.9, 233.1±49.2, in cells/mm2
  BrdU cells, subventricular zone (two values, sides not given): 456.5±42.3 and 518.4±67.2
Ischemic rats (stroke); Group 1: from one day after stroke, daily ip over seven days, vs control
  animal body weight: Significant improvements
Ischemic rats (stroke); Group 1: from one day after stroke, daily ip over seven days, young rats, vs control
  motor and sensorimotor functions (Rotarod, Adhesive Removal, NSS tests): Significant improvements
Ischemic rats (stroke); Group 2: from seven days after stroke, at 28 and 42 days after stroke, only this test
  neurological function, Rotarod test: significant improvement
